Results on 12 molecules are retold here after patent publication US10196386B2, “Compounds having muscarinic receptor antagonist and beta2 adrenergic receptor agonist activity” (priority 2016, dated 2019).

One assay concerns the target T1, Human β2 adrenoceptor (Homo sapiens, UniProt P07550).
T1 construct: purchased Perkin Elmer
Description: β2 adrenoceptor radioligand binding assay. An outline of the steps:
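Human β2 receptor membranes incubated 1 h at room temperature with 0.3 nM [125I]cyanopindolol and compound in pH 7.4 HEPES buffer (0.5% DMSO); 2 μM s-propranolol defined non-specific binding. Bound label counted after filtration; IC50 from competition curves, converted to Ki via Cheng–Prusoff.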

The target of another assay is T2, Human M3 receptor (Homo sapiens, UniProt P20309).
T2 construct: purchased Perkin Elmer
T2 sequence (P20309 whole entry): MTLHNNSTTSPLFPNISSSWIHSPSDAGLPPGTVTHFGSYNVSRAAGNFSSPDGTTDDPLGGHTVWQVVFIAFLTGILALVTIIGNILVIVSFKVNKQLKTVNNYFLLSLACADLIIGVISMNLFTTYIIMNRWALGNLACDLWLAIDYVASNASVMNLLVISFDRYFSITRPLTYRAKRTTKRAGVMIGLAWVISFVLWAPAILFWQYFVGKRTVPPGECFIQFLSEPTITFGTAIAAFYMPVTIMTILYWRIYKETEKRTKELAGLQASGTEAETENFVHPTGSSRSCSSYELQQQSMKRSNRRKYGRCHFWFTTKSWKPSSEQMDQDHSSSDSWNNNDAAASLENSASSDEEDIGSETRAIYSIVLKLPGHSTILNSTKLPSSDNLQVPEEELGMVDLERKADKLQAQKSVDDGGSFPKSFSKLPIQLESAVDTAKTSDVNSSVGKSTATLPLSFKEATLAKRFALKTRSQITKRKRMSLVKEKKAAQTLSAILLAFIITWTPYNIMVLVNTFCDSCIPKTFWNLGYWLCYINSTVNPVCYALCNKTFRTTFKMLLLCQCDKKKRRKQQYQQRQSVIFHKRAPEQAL
Kind of assay: biochemical. The assay is classed as binding. The conditions noted are these: read-out: M3 Range.

A value given as a limit tells only on which side of the number the result lay.

T1 sequence (P07550 whole entry): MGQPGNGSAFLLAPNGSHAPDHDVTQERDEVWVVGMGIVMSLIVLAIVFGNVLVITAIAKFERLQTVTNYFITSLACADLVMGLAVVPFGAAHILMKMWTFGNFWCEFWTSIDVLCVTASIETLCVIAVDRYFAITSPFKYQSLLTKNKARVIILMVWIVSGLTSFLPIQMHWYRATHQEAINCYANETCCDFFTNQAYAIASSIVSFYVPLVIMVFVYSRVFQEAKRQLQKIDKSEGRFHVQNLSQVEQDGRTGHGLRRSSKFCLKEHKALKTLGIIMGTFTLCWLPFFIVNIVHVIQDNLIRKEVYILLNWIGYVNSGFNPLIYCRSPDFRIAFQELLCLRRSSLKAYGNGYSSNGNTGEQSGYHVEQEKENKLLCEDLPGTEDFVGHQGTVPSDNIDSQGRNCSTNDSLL

For `O=C(NCc1ncc(-c2cccc([C@](O)(C(=O)OCC3CCN(Cc4ccccc4)CC3)c3ccccc3)c2)cn1)c1ccc(CNC[C@H](O)c2ccc(O)c3[nH]c(=O)ccc23)cc1` [Compound 4, (1-Benzylpiperidin-4-yl)methyl (S)-2-hydroxy-2-(3-(2-((4-((((R)-2-hydroxy-2-(8-hydroxy-2-oxo-1,2-dihydroquinolin-5-yl)ethyl)amino)methyl)benzamido)-methyl)pyrimidin-5-yl)phenyl)-2-phenylacetate], the IC50 on Human β2 adrenoceptor and at Human M3 receptor was 300 to 3000 pM throughout.

As to `O=C(NCc1ccc(-c2ccc([C@](O)(C(=O)OCC3CCN(Cc4ccccc4)CC3)c3ccccc3)cc2)cn1)c1ccc(CNC[C@H](O)c2ccc(O)c3[nH]c(=O)ccc23)cc1` [Compound 15D, (1-benzylpiperidin-4-yl)methyl (S)-2-hydroxy-2-(4-(6-((4-((((R)-2-hydroxy-2-(8-hydroxy-2-oxo-1,2-dihydroquinolin-5-yl)ethyl)amino)methyl)-benzamido)methyl)pyridin-3-yl)phenyl)-2-phenylacetate], the IC50 on Human β2 adrenoceptor was less than 300 pM; at Human M3 receptor, 300 to 3000 pM.

Turning to `O=C(c1ccc(CNC[C@H](O)c2ccc(O)c3[nH]c(=O)ccc23)cc1)N1CC=C(c2cccc([C@](O)(C(=O)OCC3CCN(Cc4ccccc4)CC3)c3ccccc3)c2)CC1` [Compound 3B, (1-Benzylpiperidin-4-yl)methyl (S)-2-hydroxy-2-(3-(1-(4-((((R)-2-hydroxy-2-(8-hydroxy-2-oxo-1,2-dihydroquinolin-5-yl)ethyl)amino)methyl)benzoyl)-1,2,3,6-tetrahydropyridin-4-yl)phenyl)-2-phenylacetate], the IC50 was less than 300 pM at Human β2 adrenoceptor and 300 to 3000 pM on Human M3 receptor.

`O=C(c1ccc(CCNC[C@H](O)c2ccc(O)c3[nH]c(=O)ccc23)cc1)N1CC=C(c2cccc([C@](O)(C(=O)OCC3CCN(Cc4ccccc4)CC3)c3ccccc3)c2)CC1` [Compound 3, (1-Benzylpiperidin-4-yl)methyl (S)-2-hydroxy-2-(3-(1-(4-(2-(((R)-2-hydroxy-2-(8-hydroxy-2-oxo-1,2-dihydroquinolin-5-yl)ethyl)amino)ethyl)benzoyl)-1,2,3,6-tetrahydropyridin-4-yl)phenyl)-2-phenylacetate]: the IC50 on Human β2 adrenoceptor and at Human M3 receptor was less than 300 pM in each case.

With `O=C(NCc1ccc(-c2cccc([C@](O)(C(=O)OC3CCC4(CC3)CCN(Cc3ccccc3)CC4)c3ccccc3)c2)s1)c1ccc(CNC[C@H](O)c2ccc(O)c3[nH]c(=O)ccc23)cc1` [Compound 2H, 3-Benzyl-3-azaspiro[5.5]undecan-9-yl (S)-2-hydroxy-2-(3-(5-((4-((((R)-2-hydroxy-2-(8-hydroxy-2-oxo-1,2-dihydroquinolin-5-yl)ethyl)amino)-methyl)benzamido)methyl)thiophen-2-yl)phenyl)-2-phenylacetate], the IC50 on Human β2 adrenoceptor is less than 300 pM; at Human M3 receptor, more than 3000 pM.

As for `COc1cc(C(=O)NCc2nn(C)cc2-c2cccc([C@](O)(C(=O)OCC3CCN(Cc4ccccc4)CC3)c3ccccc3)c2)ccc1CNC[C@H](O)c1ccc(O)c2[nH]c(=O)ccc12` [Compound 4F, (1-Benzylpiperidin-4-yl)methyl (S)-2-hydroxy-2-(3-(3-((4-((((R)-2-hydroxy-2-(8-hydroxy-2-oxo-1,2-dihydroquinolin-5-yl)ethyl)amino)methyl)-3-methoxybenzamido)methyl)-1-methyl-1H-pyrazol-4-yl)phenyl)-2-phenylacetate], the IC50 at Human β2 adrenoceptor and on Human M3 receptor was 300 to 3000 pM in each case.

For the molecule `O=C(NCc1ccc(-c2ccc([C@](O)(C(=O)OCC3CCN(Cc4ccccc4)CC3)c3ccccc3)cc2)s1)c1ccc(CNC[C@H](O)c2ccc(O)c3[nH]c(=O)ccc23)cc1` [Compound 15, (1-benzylpiperidin-4-yl)methyl (S)-2-hydroxy-2-(4-(5-((4-((((R)-2-hydroxy-2-(8-hydroxy-2-oxo-1,2-dihydroquinolin-5-yl)ethyl)amino)methyl)benzamido)methyl)-thiophen-2-yl)phenyl)-2-phenylacetate×2 HCOOH], the IC50 at Human β2 adrenoceptor is less than 300 pM; on Human M3 receptor it was 300 to 3000 pM.

Take `C[C@@H](NC(=O)c1ccc(CNC[C@H](O)c2ccc(O)c3[nH]c(=O)ccc23)cc1)C(=O)N1CC=C(c2cccc([C@](O)(C(=O)OCC3CCN(Cc4ccccc4)CC3)c3ccccc3)c2)CC1` [Compound 8B, (1-Benzylpiperidin-4-yl)methyl (S)-2-hydroxy-2-(3-(1-((4-((((R)-2-hydroxy-2-(8-hydroxy-2-oxo-1,2-dihydroquinolin-5-yl)ethyl)amino)methyl)benzoyl)-D-alanyl)-1,2,3,6-tetrahydropyridin-4-yl)phenyl)-2-phenylacetate]: the IC50 on Human β2 adrenoceptor and on Human M3 receptor was 300 to 3000 pM each time.

With `COc1cc(C(=O)NCc2ccc(-c3cccc([C@](O)(C(=O)OCC4CCN(Cc5ccccc5)CC4)c4ccccc4)c3)s2)c(F)cc1CNC[C@H](O)c1ccc(O)c2[nH]c(=O)ccc12` [Compound 1E, (1-Benzylpiperidin-4-yl)methyl (S)-2-(3-(5-((2-fluoro-4-((((R)-2-hydroxy-2-(8-hydroxy-2-oxo-1,2-dihydroquinolin-5-yl)ethyl)amino)methyl)-5-methoxybenzamido)methyl)thiophen-2-yl)phenyl)-2-hydroxy-2-phenylacetate], the IC50 at Human β2 adrenoceptor is less than 300 pM; on Human M3 receptor, 300 to 3000 pM.

Regarding `O=C(c1ccc2c(c1)CC(NC[C@H](O)c1ccc(O)c3[nH]c(=O)ccc13)C2)N1CCC(c2cccc([C@](O)(C(=O)OCC3CCN(Cc4ccccc4)CC3)c3ccccc3)c2)CC1` (stereo partly drawn) [Compound 7D, (1-Benzylpiperidin-4-yl)methyl (2S)-2-hydroxy-2-(3-(1-(2-(((R)-2-hydroxy-2-(8-hydroxy-2-oxo-1,2-dihydroquinolin-5-yl)ethyl)amino)-2,3-dihydro-1H-indene-5-carbonyl)piperidin-4-yl)phenyl)-2-phenylacetate], the IC50 on Human β2 adrenoceptor was 300 to 3000 pM; on Human M3 receptor it was less than 300 pM.

As to `O=C1c2ccc(CNC[C@H](O)c3ccc(O)c4[nH]c(=O)ccc34)cc2C(=O)N1Cc1ccc(-c2cccc([C@](O)(C(=O)OCC3CCN(Cc4ccccc4)CC3)c3ccccc3)c2)s1` [Compound 12, (1-Benzylpiperidin-4-yl)methyl (S)-2-hydroxy-2-(3-(5-((5-((((R)-2-hydroxy-2-(8-hydroxy-2-oxo-1,2-dihydroquinolin-5-yl)ethyl)amino)methyl)-1,3-dioxoisoindolin-2-yl)methyl)thiophen-2-yl)phenyl)-2-phenylacetate], the IC50 on Human β2 adrenoceptor and at Human M3 receptor was 300 to 3000 pM in each case.

On to `COc1cc(C(=O)NCc2ccc(-c3cccc([C@](O)(C(=O)OCC4CCN(Cc5ccccc5)CC4)c4ccccc4)c3)nn2)ccc1CNC[C@H](O)c1ccc(O)c2[nH]c(=O)ccc12` [Compound 4C, (1-Benzylpiperidin-4-yl)methyl (S)-2-hydroxy-2-(3-(6-((4-((((R)-2-hydroxy-2-(8-hydroxy-2-oxo-1,2-dihydroquinolin-5-yl)ethyl)amino)methyl)-3-methoxybenzamido)methyl)pyridazin-3-yl)phenyl)-2-phenylacetate], for which the IC50 at Human β2 adrenoceptor and on Human M3 receptor was less than 300 pM throughout.
